Results published in US20070275936A1, “Formulations and Treatment Methods” (priority 1998, published 2007).
Marks after values point to notes of the source that are not given here.

What was measured:
[1] = test system: NK cell; assay: NK cell counts in HIV/HCV infected patient dosed I.V. with BrEA; type: in vivo, human; settings: predosing 28
Description: A patient infected with HIV and HCV was dosed I.V. with BrEA for 3 consecutive days using a formulation that contained 20 mg/mL BrEA in 45% w/v hydroxypropyl-β-cyclodextrin and saline. Four mL of the formulation (80 mg BrEA) was administered to the patient every 4 hours during the 3 day treatment period. The patient's predosing HCV level was 6.5 Log10 as measured by PCR and the HCV level was 6.2 Log10 on the first day of dosing, 5.5 Log10 on the 3rd day of dosing and 4.9 Log10 three days after the last dose was administered. HIV RNA levels as measured by PCR was 5.2 Log10 (predosing), 5.8 Log10 (first day), 5.9 Log10 (third day) and 5.4 Log10 (day 6). The NK cell counts (cells/mm^3) were 28, 41 and 38 at predosing, day 0 and day 3.

[2] = test system: Immune cell subsets; assay: Human HIV clinical protocol: immune phenotypes by flow cytometry; type: in vivo; settings: for CD8+CD16+CD38+ cells, median: Baseline 8; for CD8−CD16+ cells, median: Baseline 53; for CD8+CD69+CD25− cells, median: Baseline 18; for Activated T cells (CD8+ CD69+ CD25−), median: about 1 week after last dose
Description: Patients infected with HIV are dosed with an i.m. injection of 25-200 mg of BrEA using a formulation containing 100 mg/mL BrEA, PEG300 ˜30% v/v, propylene glycol 30% v/v, benzyl benzoate 30% v/v and benzyl alcohol 2% v/v. The pateints are dosed once per day for 5 consecutive days followed by a period of about 28 days or longer with no BrEA treatment. The patients were them provided with one more course of 5 consecutive days of dosing with BrEA, followed by a non-dosing period of at least about 28 days. Up to 8 rounds of 5-day treatments, followed by at least 28 days of no dosing were provided. Immunological responses were then assayed using blood or plasma samples from the patients by flow cytometry and other known analytical methods. Immune cell subsets or other measured markers were assayed within 24 hours of obtaining the sample from each patient. Labeled antibodies, e.g., anti-CD antigen antibodies conjugated with fluorescent dyes (FITC, phycoerythrin, allophycocyanin or PerCP), were prepared and used essentially according to standard protocols using commercially available reagents, see, e.g., PharMingen, 1998 Research Products Catalog, technical protocols at pages 732-774, human cell surface molecules at pages 182-295 and mouse, rat and hamster cell surface molecules at pages 2-173 and cytokine and chemokine reagents at pages 344-489.
Otherwise untreated patients with CD4 counts of ≧200/μL and HIV-1 viral RNA between 5,000 and 1,000,000 copies/mL (branched-DNA, version 3.0, Bayer, Tarrytown, N.Y.) provided informed consent and were enrolled into a Phase I/II dose-escalation study of the safety and efficacy of intramuscular injections of BrEA. The protocol was conducted in South Africa. In the first cohort, four patients received an initial injection of 1 mL (50 mg), followed by a safety and pharmocokinetic study for seven days, and then received five daily injections of 1 mL (50 mg). The second cohort of 8 patients was randomized in a 1:2 ratio to receive either 50 mg (1 mL) or 100 mg (2 mL) on the same schedule. Patients were allowed at the discretion of the investigators to receive up to three additional courses each, repeated after 28 days of observation. The protocol was amended to introduce an improved formulation, and to extend the initial pharmacokinetic and safety period to 14 days, the observation period following the five daily doses to 35 days, and to allow up to 7 treatment courses. A third cohort of 24 patients was randomized in a 1:2:4 ratio to receive either 50 mg (0.5 mL), 100 mg (1 mL), or 200 mg (2 mL) of BrEA. The patients were all male, since initial safety studies are not permitted in females in South Africa. Within the group of 39 patients randomized, the ethnic demographic included was 18 Caucasian, 17 African, and 4 other. The average age was 34 (range 20-63), the average initial CD4/μL was 434 (range 176-1210), and the average viral load was 13,772 copies/mL (range 3,020-158,489). Patients underwent physical examinations and provided samples for chemistry, hematology, virology and immunology testing approximately every two weeks.
Course 1, 2 and 3 refer to each 5 consecutive day treatment regimen of one daily injection with BrEA (50 or 100 mg BrEA per injection). The formulation contained 100 mg/mL BrEA, PEG300 ˜30% v/v, propylene glycol 30% v/v, benzyl benzoate 30% v/v and benzyl alcohol 2% v/v. The data shown below was obtained from patient blood samples at baseline (on the day dosing was initiated) and at various times after the patients received at least one dose of BrEA. […] The patients in this protocol initially had CD4 counts of at least 200 per mm^3 and a serum HIV RNA load of 5,000 to 1×10^6 RNA copies/mL. […] Average CD4 IL-10 production dropped from a median of 66% to 4% of the cells, while CD4 IFNγ went from a median of 8% to 63%, leading to a Th2 to a Th1 shift in cytokine production. […]

C[C@]12CC[C@H](O)C[C@@H]1CC[C@@H]1[C@@H]2CC[C@]2(C)C(=O)[C@H](Br)C[C@@H]12 [BrEA, 16α-bromo-3β-hydroxy-5α-androstane-17-one]
NK cell counts ([1]; day 0): 41 cells/mm^3 | NK cell counts ([1]; day 3): 38 cells/mm^3 | Early Activation-Stage CD8+ T cells: Time-averaged AUC Increase Mean ± SEM ([2]; CD3+ CD8+ CD69+ CD25−, n=36, p=0.049): 67 ± 33% | LAK: Time-averaged AUC Increase Mean ± SEM ([2]; CD8+ CD16+, n=36, p=0.19): 13 ± 9% | NK: Time-averaged AUC Increase Mean ± SEM ([2]; CD8−CD16+, n=36, p=0.20): 29 ± 22% | Lin− HLA-DR+ CD11c+/CD123+ cells, median ([2]; Course 1, Baseline 3.2, n=10, p<0.001): 17.7 cells/μL | CD8+CD16+CD38+ cells, median ([2]; Course 1, n=10, p<0.001): 27 cells/μL | CD8−CD16+ cells, median ([2]; Course 1, n=12, p<0.001): 253 cells/μL | CD8+CD69+CD25− cells, median ([2]; Course 1, HIV patients, 50 or 100 mg i.m. daily ×5, n=13, p<0.001): 54 cells/μL | CD8+CD16+CD38+ cells, median ([2]; Course 2, n=4, p=0.047): 28 cells/μL | CD8+CD69+CD25− cells, median ([2]; Course 2, n=9, p<0.001): 56 cells/μL | CD8−CD16+ cells, median ([2]; Course 2, n=4, p=0.02): 288 cells/μL | Lin− HLA-DR+ CD11c+/CD123+ cells, median ([2]; Course 2, baseline value from initiation of 2nd course = 6.4, n=5, p=0.02): 11.4^c cells/μL | CD8+CD16+CD38+ cells, median ([2]; Course 3, n=4, p=0.02): 25 cells/μL | CD8+CD69+CD25− cells, median ([2]; Course 3, n=4, p=0.04): 75 cells/μL | CD8−CD16+ cells, median ([2]; Course 3, n=2, p=0.04): 249 cells/μL | Lin− HLA-DR+ CD11c+/CD123+ cells, median ([2]; Course 3, baseline value from initiation of 2nd course = 6.4, n=4, p=0.04): 14.7^c cells/μL | DC1 (CD11c+) Dendritic Cells: Time-averaged AUC Increase Mean ± SEM ([2]; Lineage− HLA-DR+ CD11c+, n=31, p=0.010): 50 ± 18% | DC2 (CD123+) Dendritic Cells: Time-averaged AUC Increase Mean ± SEM ([2]; Lineage− HLA-DR+ CD123+, n=31, p=0.021): 32 ± 13% | Activated T cells (CD8+ CD69+ CD25−), median ([2]; Treatment 1, treated, baseline 19): 54 (n = 13, p < 0.001) cells/μL | Dendritic cells (Lin− HLA-DR+ CD123+/CD11+), median ([2]; Treatment 1, treated, baseline 3.5): 18 (n = 10, p = 0.001) cells/μL | LAK cells (CD8+ CD16+ CD38+), median ([2]; Treatment 1, treated, baseline 8): 27 (n = 10, p < 0.001) cells/μL | NK (ADCC responders) cells (CD8− CD16+), median ([2]; Treatment 1, treated, baseline 54): 253 (n = 12, p < 0.001) cells/μL | Activated T cells (CD8+ CD69+ CD25−), median ([2]; Treatment 2, treated, baseline 19): 56 (n = 9, p < 0.001) cells/μL | Dendritic cells (Lin− HLA-DR+ CD123+/CD11+), median ([2]; Treatment 2, treated, baseline 6.5): 11.5 (n = 5, p = 0.02) cells/μL | LAK cells (CD8+ CD16+ CD38+), median ([2]; Treatment 2, treated, baseline 12): 28 (n = 4, p = 0.04) cells/μL | NK (ADCC responders) cells (CD8− CD16+), median ([2]; Treatment 2, treated, baseline 58): 285 (n = 4, p = 0.02) cells/μL | Activated T cells (CD8+ CD69+ CD25−), median ([2]; Treatment 3, treated, baseline 18): 74 (n = 4, p = 0.04) cells/μL | Dendritic cells (Lin− HLA-DR+ CD123+/CD11+), median ([2]; Treatment 3, treated, baseline 6): 55 (n = 4, p = 0.04) cells/μL | LAK cells (CD8+ CD16+ CD38+), median ([2]; Treatment 3, treated, baseline 12): 25 (n = 4, p = 0.02) cells/μL | NK (ADCC responders) cells (CD8− CD16+), median ([2]; Treatment 3, treated, baseline 56): 250 (n = 2, p = 0.04) cells/μL | CD4 IL-10 production, median % of the cells ([2]; after one course (5 daily i.m. injections), dropped from 66%): 4% | CD4 IFNγ, median % of the cells ([2]; after one course (5 daily i.m. injections), went from 8%): 63% | DC1 (CD11c+) Dendritic Cells: Maximum Analysis Visit Responses Mean ([2]; analysis visit day 22): 58% (22) | NK: Maximum Analysis Visit Responses Mean ([2]; analysis visit day 36): 41% (36) | LAK: Maximum Analysis Visit Responses Mean ([2]; analysis visit day 67): 34% (67) | DC2 (CD123+) Dendritic Cells: Maximum Analysis Visit Responses Mean ([2]; analysis visit day 80): 44% (80) | Total Dendritic Cells: Maximum Analysis Visit Responses Mean ([2]; analysis visit day 139): 38% (139) | Early Activation-Stage CD8+ T cells: Maximum Analysis Visit Responses Mean ([2]; analysis visit day 153): 162% (153) | DC1 (CD11c+) Dendritic Cells: Maximum Individual Patient Responses Mean (range) ([2]; change from baseline, n=31): 130% (−20 to 870%) | DC2 (CD123+) Dendritic Cells: Maximum Individual Patient Responses Mean (range) ([2]; change from baseline, n=31): 100% (−30 to 480%) | Total Dendritic Cells: Maximum Individual Patient Responses Mean (range) ([2]; change from baseline, n=31): 100% (−20 to 600%) | Early Activation-Stage CD8+ T cells: Maximum Individual Patient Responses Mean (range) ([2]; change from baseline, n=36): 210% (0 to 3,090%) | LAK: Maximum Individual Patient Responses Mean (range) ([2]; change from baseline, n=36): 90% (−90 to 630%) | NK: Maximum Individual Patient Responses Mean (range) ([2]; change from baseline, n=36): 140% (−40 to 1,220%) | Activated CD8+ T cells: Time-averaged AUC Increase Mean ± SEM ([2]; i.m. BrEA, HIV patients, CD3+ CD8+ and CD69+ or CD25+, n=36, p=0.005): 15 ± 5% | Activated CD8+ T cells: Maximum Analysis Visit Responses Mean ([2]; i.m. BrEA, HIV patients, analysis visit day 22): 25% (22) | Activated CD8+ T cells: Maximum Individual Patient Responses Mean (range) ([2]; i.m. BrEA, HIV patients, change from baseline, n=36): 70% (−10 to 340%) | DC1 to DC2 Ratio: Time-averaged AUC Increase Mean ± SEM ([2]; n=31, p=0.003): 44 ± 13% | Total Dendritic Cells: Time-averaged AUC Increase Mean ± SEM ([2]; n=31, p=0.010): 38 ± 14%
